Laboratory results: patent US20020091086A1, “Peptides that block viral infectivity and methods of use thereof” (priority 1999, published 2002)
Read-outs that look alike come from different tables or passages of the source. Peptide text beside a SMILES is read from it.

Assays:
HIV-1 = details: for reduction of HIV-1 infectivity, p24 antigen in cell supernatants: Table 6; for p24 / p24 (OD) / reduction (%): Experiment 5, H9 cells
Experimental: In Experiment 5, (Table 6) approximately 200,000 H9 cells were infected with HIV-1 at 25 TCID50 to test the inhibitory effect of different concentrations of peptides GPG-NH2, GKG-NH2 and CQG-NH2 and combinations of these peptides. As above, H9 cells were resuspended with or without the different peptides at varying concentrations in 1 ml of RPMI 1640 medium supplemented with 10% (v/v) heat-inactivated fetal bovine serum (FBS), penicillin (100 u/ml), streptomycin (100 u/ml), and Polybrene (2 μg/ml). Thereafter, viruses were added at 25 TCID50 in a volume of 20-30 μl. Cells were incubated with the indicated virus at 37° C. for 1 hr then pelleted at 170×g for 7 minutes. The cells were then washed three times in RPMI medium without peptides at room temperature and pelleted at 170×g for 7 minutes, as above. After the final wash, the cells were resuspended in RPMI culture medium containing the peptides in a 24-well plate (Costar corporation) and kept at 37° C. in 5% CO2 with humidity.
Culture supernatants were collected when the medium was changed at 4, 7, and 14 days post infection. The replication of each virus was monitored by detecting the presence of p24 in the supernatants. HIV p24 antigen was determined using a commercially available HIV p24 antigen detection kit (Abbott). The results are presented as absorbance values (OD) and higher absorbance indicates a higher protein concentration and greater viral infection. In some cases, serial dilutions of the supernatants were made so as to more accurately detect p24 concentration.
The percent reduction tabulated in Table 6 was calculated by dividing amount of p24 antigen detected in the peptide-treated sample by the amount of p24 antigen detected in the control sample, multiplying this dividend by 100 to obtain a percentage, and subtracting the dividend percentage by 100%.

[1] = single intravenous dose toxicity in adult mice; assay type: in vivo; details: intravenous injection in the tail vein, up to 1 g per kilo bodyweight
Experimental: In this example, the results from several in vivo toxicology studies on small peptides administered in large doses to rodents are presented. In a first experiment, a large single dose of small peptide was delivered to mice and the toxic effects were analyzed. […] In a second experiment, several doses of varying amounts of a small peptide were delivered to mice for almost three weeks. Groups of mice (five mice in each group) were given intraperitoneal injections of GPG-NH2 (0.01, 0.1 and 1 g per kilo bodyweight and day, respectively) starting at an age of 6 days. Daily injections were continued for 18 days. […] In a similar experiment, a four week toxicology study of GPG-NH2 was performed by Scantox A/S in Denmark. GPG-NH2 was given orally to rats at doses up to 1 g per kilo bodyweight per day for twenty eight days.

[2] = tested on: HIV-1 isolate p7141 (high PI); assay: resistant HIV-1 isolates in PBMC, p24 ELISA; assay type: cell-based; details: GPG 100 μM, 14 days post infection
[3] = tested on: normal human lymphomonocytic cells (PBMC); assay: viability of cultured monocytes and lymphocytes; assay type: cell-based; details: as high as 2 mM; exposure as long as 4 days
Experimental: Next, the toxicity to normal human lymphomonocytic cells (PBMC) was examined. […] The effect of GPG-NH2 on in vitro proliferative response of human mononuclear cells was also tested.

GPG-deleted mutant mp8 = assay: infectivity in MT-2 cells, p24 ELISA, GPG-deleted mutant mp8; assay type: cell-based, HIV-1
Experimental: Accordingly, the ability of GPG-NH2 to inhibit the infectivity of wild-type and V3-loop deletion mutants (GPG domain) in MT-2 cells was determined. In these experiments, approximately 200,000 MT-2 cells were infected with HIV-1Bru wild-type and GPG-deleted mutants mp8 and mp10 at 25 TCID50 to test the inhibitory effect of GPG-NH2 The MT-2 cells were resuspended in 1 ml of RPMT 1640 medium supplemented with 10% (v/v) heat-inactivated fetal bovine serum (FBS, GIBCO), penicillin (100μ/ml), streptomycin (100μ/ml) and Polybrene (Sigma 2 μg/ml) with or without the presence of GPG-NH2 at concentration 20 of μM and 100 μM. Thereafter, viruses were added at 25 TCID50 in a volume of 20-30 μl. Cells were incubated with virus at 37° C. for 16 hr then loosely pelleted by centrifugation at 170×g for 7 minutes. The cells were then washed three times in RPMI medium without peptides at room temperature by cell sedimentation at 170×g for 7 minutes as above. After the final wash, the cells were resuspended in RPMI culture medium in 24-well plate (Costar corporation) then kept at 37° C. in 5% CO2 with humidity. Culture supernatants were collected when medium was changed at day 4, 7, 11 and 14 post infection. To monitor the replication of virus, HIV-1 p24 antigen protein in the supernatants from day 7 and 14 was assayed by a ELISA kit (Abbott Laboratories) which has a linear dose-response range from 20 pg to 640 pg of p24 per ml and the p24 amount can be determined with aid of the regression line.

Row | Compound | reduction of HIV-1 infectivity, p24 antigen in cell supernatants (HIV-1; 300 μM) [%] | p24 (HIV-1; Day 7 HIV-1, 100 μM) [pg/mL] | p24 (OD) (HIV-1; Day 7 HIV-1, 100 μM) | reduction (%) (HIV-1; Day 7 HIV-1, 100 μM) | p24 (HIV-1; Day 7 HIV-1, 300 μM) [pg/mL] | p24 (OD) (HIV-1; Day 7 HIV-1, 300 μM) | reduction (%) (HIV-1; Day 7 HIV-1, 300 μM) | p24 (HIV-1; Day 7 HIV-1, 1000 μM) [pg/mL] | p24 (OD) (HIV-1; Day 7 HIV-1, 1000 μM) | reduction (%) (HIV-1; Day 7 HIV-1, 1000 μM) | p24 (HIV-1; Day 14 HIV-1, 100 μM) [pg/mL] | p24 (OD) (HIV-1; Day 14 HIV-1, 100 μM) | reduction (%) (HIV-1; Day 14 HIV-1, 100 μM) | p24 (HIV-1; Day 14 HIV-1, 300 μM) [pg/mL] | p24 (OD) (HIV-1; Day 14 HIV-1, 300 μM) | reduction (%) (HIV-1; Day 14 HIV-1, 300 μM) | p24 (HIV-1; Day 14 HIV-1, 1000 μM) [pg/mL] | p24 (OD) (HIV-1; Day 14 HIV-1, 1000 μM) | reduction (%) (HIV-1; Day 14 HIV-1, 1000 μM) | also measured
1 | cystyl-glutaminyl-glycine amide [CQG-NH2] | ~100 | 5620 | 1.51 × 10^1 OD | 86 | 1920 | 0.59 × 10^1 OD | 95 | 320 | 0.91 | 99 | 1.47e+06 | 0.48 × 10^4 OD | 0 | 2400 | 0.11 × 10^2 OD | 100 | 280 | 0.13 × 10^1 OD | 100 | –
2 | NCC(=O)N1CCC[C@H]1C(=O)NCC(N)=O [GPG-NH2, glycyl-prolyl-glycine amide] (H-Gly-Pro-Gly-NH2) | – | 160 | 0.508 OD | 100 | 180 | 0.557 OD | 100 | – | – | – | 663 | 1.76 OD | 100 | 498 | 1.35 OD | 100 | – | – | – | toxic effects [1]: no apparent toxic effects; % reduction [2]: (100%); HIV-1 p24 [2]: <500 pg/mL; viability of cultured monocytes and lymphocytes [3]: did not appreciably affect the viability; p24 (GPG-deleted mutant mp8; GPG 20 μM, Day 7): 2420 pg/mL; reduction (%) (GPG-deleted mutant mp8; GPG 20 μM, Day 7): 24%; p24 (GPG-deleted mutant mp8; GPG 20 μM, Day 14): 69100 pg/mL; reduction (%) (GPG-deleted mutant mp8; GPG 20 μM, Day 14): 53%; p24 (GPG-deleted mutant mp8; GPG 100 μM, Day 7): 208 pg/mL; reduction (%) (GPG-deleted mutant mp8; GPG 100 μM, Day 7): 93%; p24 (GPG-deleted mutant mp8; GPG 100 μM, Day 14): 7410 pg/mL; reduction (%) (GPG-deleted mutant mp8; GPG 100 μM, Day 14): 95%; p24 (HIV-1; Day 7 HIV-1, 20 μM): 421 pg/mL; p24 (OD) (HIV-1; Day 7 HIV-1, 20 μM): 1.159 OD; reduction (%) (HIV-1; Day 7 HIV-1, 20 μM): 99%; p24 (HIV-1; Day 14 HIV-1, 20 μM): 40600 pg/mL; p24 (OD) (HIV-1; Day 14 HIV-1, 20 μM): 1.12 × 10^2 OD; reduction (%) (HIV-1; Day 14 HIV-1, 20 μM): 97%
3 | NCCCC[C@H](NC(=O)CN)C(=O)NCC(N)=O [GKG-NH2, glycyl-lysyl-glycine amide] (H-Gly-Lys-Gly-NH2) | ~100 | 1830 | 0.566 × 10^1 OD | 95 | 388 | 1.08 OD | 99 | 273 | 0.79 | 100 | 551000 | 1.48 × 10^3 OD | 61 | 870 | 0.33 × 10^1 OD | 100 | 240 | 0.11 × 10^1 OD | 100 | –
